This assay deals with Peripheral blood mononuclear cells (PBMC). The assay can be described thus: LPS-induced cytokine expression profile in PBMC with or without cortisol pretreatment (Bioplex). It counts as cell-based, human. The arrangement: key to Cortisol Effect on IFN-g secretion level / LPS Effect on IFN-g secretion level / Cortisol Effect on TNF-a secretion level / Cortisol Effect on GM-CSF secretion level / LPS Effect on GM-CSF secretion level / Cortisol Effect on IL-2 secretion level / LPS Effect on IL-2 secretion level / Cortisol Effect on IL-4 secretion level / Cortisol Effect on IL-10 secretion level: n/c = No Change. As for the experimental part: Peripheral blood mononuclear cells (PBMC) from non-pregnant (at least 5-6 years post-partum) women with history of preterm or full term delivery, in addition to the microbial component lipopolysaccharide (LPS)-induced cytokine expression profile were examined. PBMC were separated from whole blood using Ficoll gradient. The cells were counted and equal numbers of cells were plated in 24 well plates. PBMC were treated with cortisol (50 or 300 ug/ml) or media for 1 hour prior to stimulation with LPS (0, 1, or 100 ug/ml) for 24 hours.
The PBMC were lysed and the supernatant was examined for inflammatory and anti-inflammatory cytokine expression by using Bioplex technology (Bio-rad).
In this study two patients were preterm and four were full term. There were 9 samples per patient (3×3 design) and all samples from each patient were analyzed twice for cytokine concentrations with the exception of one full term subject who only had one analysis of each sample. As a result there are a total of 99 observations for each cytokine measured. The assay simultaneously measured concentrations of 11 inflammatory markers: IL-1ra (IL1-receptor antagonist), IL-2, IL-4, IL-5, IL-8, IL-10, IL-12, IL-13, GM-CSF, IFN-g, and TNF-a.
All raw data was tested via the Kolmogorov-Smirnov test to determine if the data followed a normal distribution. Log-transformations were performed for all data found to have a non-normal distribution prior to further statistical analysis. For each cytokine, a mixed effects model was used to examine all data for significant effects with the outcome variable as the cytokine concentration; the fixed predictor variables as LPS concentration, cortisol concentration, and delivery status (pre- or full-term); and the random effect due to the replicate data points. To test the interaction of the three fixed predictor variables on cytokine concentration, both first and second level interactions ware added to each cytokine model. Post-hoc testing was performed using a Student's t-test.
Using the same mixed model regression, estimated group means and standard errors were calculated. Differences between preterm and full-term pregnancies were considered significant where p <0.10.

[1] abbreviates: 0 or 300 ug/ml cortisol pretreatment 1 hour, 0 or 1 ug/ml LPS 24 hours, mixed modeling.
[2] abbreviates: 0 or 300 ug/ml cortisol pretreatment 1 hour, 0 or 1 ug/ml LPS 24 hours, mixed modeling, listed as cortisol.
The mark [3] stands for this setting: all 99 observations, 300 ug/ml vs 50 ug/ml cortisol.
[4] abbreviates: 0 or 1 ug/ml LPS 24 hours, 0 or 300 ug/ml cortisol pretreatment, mixed modeling.

“Also recorded” adds a separate entry of the source.

With `C[C@]12CCC(=O)C=C1CC[C@@H]1[C@@H]2[C@@H](O)C[C@@]2(C)[C@H]1CC[C@]2(O)C(=O)CO` [Cortisol, cortisol], under setting [1], the “Cortisol Effect on GM-CSF secretion level” value is “n/c, p = .51”; the “Cortisol Effect on IFN-g secretion level” value is on record as “n/c, p = .10”; the “Cortisol Effect on IL-1ra secretion level” value is recorded as “decrease, p = .03”; the “Cortisol Effect on IL-2 secretion level” value was “n/c, p = .80”. For the same compound, under setting [1], the “Cortisol Effect on IL-4 secretion level” value is given as “n/c, p = .26”; the “Cortisol Effect on IL-10 secretion level” value is recorded as “n/c, p = .12”; the “Cortisol Effect on IL-13 secretion level” value is on record as “decrease, p = .01”; the “Cortisol Effect on TNF-a secretion level” value is “n/c, p = .41”. Further, under setting [2], the “Cortisol Effect on IL-1ra secretion level” value is “suppress secretion” and the “Cortisol Effect on IL-13 secretion level” value is reported as “suppress secretion”. Under setting [3], the “Suppression of IL-1ra level, 300 ug/ml cortisol compared with 50 ug/ml” value is reported as “more significant effect to suppress cytokine levels”; the “Suppression of IL-10 level, 300 ug/ml cortisol compared with 50 ug/ml” value is reported as “more significant effect to suppress cytokine levels”; the “Suppression of IL-13 level, 300 ug/ml cortisol compared with 50 ug/ml” value is recorded as “more significant effect to suppress cytokine levels”.

As for lipopolysaccharide [LPS], under setting [4], the “LPS Effect on GM-CSF secretion level” value is recorded as “n/c, p = .19”; the “LPS Effect on IFN-g secretion level” value is listed as “n/c, p = .17”; the “LPS Effect on IL-1ra secretion level” value is listed as “increased secretion; also recorded: increase, p = .09”; the “LPS Effect on IL-2 secretion level” value was “n/c, p = .50”. Moreover, under setting [4], the “LPS Effect on IL-4 secretion level” value is “increased secretion; also recorded: increase, p = .07”; the “LPS Effect on IL-10 secretion level” value is reported as “increased secretion; also recorded: increase, p = .01”; the “LPS Effect on IL-13 secretion level” value was “increased secretion; also recorded: increase, p = .04”; the “LPS Effect on TNF-a secretion level” value is listed as “increased secretion; also recorded: increase, p = .04”. Further, the “Difference between the effects of 1 ug/ml and 100 ug/ml LPS, all cytokines measured” value (all 99 observations, 1 ug/ml vs 100 ug/ml LPS) is “no significant difference”.
